Format in all cases: cell-based
Assay [1] has as its system A431 cells. As to the kind of experiment: Cellular proliferation (Alamar Blue) assay, A431 cells. Particulars: Homo sapiens, A-431, 72 h, A431 cells; 72 hr; Alamar Blue; read-out: A431 IC50. The gist of the method: (§1)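 Compound treatment lasted 72 h at 37 °C across a final 10-0.0005 μM range in 3-fold steps; cell growth was measured with Alamar Blue (3 h). Ba/F3 seeded at 15,000 and A431 at 5000 cells/well.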
A general note: Resazurin is reduced to fluorescent resorufin, in cell work by metabolically active cells.

In assay [2] the target is EGFR (A767_dupASV) expressing Ba/F3 stable cell line (Homo sapiens, UniProt P00533, DUP767-769, cells depend on it). Description: Cellular proliferation (Alamar Blue) assay, EGFR (A767_dupASV) Ba/F3. The conditions noted are these: 72 hr, read-out: A767 IC50. The method, boiled down:
as §1

Assay [3] has as its target HER2 (A775_G776insYVMA) expressing Ba/F3 stable cell line (Homo sapiens, UniProt P04626, DUP772-775, cells depend on it). Description: Cellular proliferation (Alamar Blue) assay, HER2 (A775_G776insYVMA) Ba/F3. The conditions noted are these: HER2 (A775_G776insYVMA) Ba/F3 cells; 72 hr; Alamar Blue; read-out: YVMA IC50. The method, boiled down:
as §1

The target of assay [4] is EGFR(D770_N771insSVD) expressing Ba/F3 stable cell line (Homo sapiens, UniProt P00533, DUP768-770, cells depend on it). Description: Cellular proliferation (Alamar Blue) assay, EGFR(D770_N771insSVD) Ba/F3. The conditions noted are these: 72 hr, read-out: D770 IC50. The gist of the method: as §1
Chain of EGFR(D770_N771insSVD) expressing Ba/F3 stable cell line (P00533 with tags, fused parts or gaps DUP768-770): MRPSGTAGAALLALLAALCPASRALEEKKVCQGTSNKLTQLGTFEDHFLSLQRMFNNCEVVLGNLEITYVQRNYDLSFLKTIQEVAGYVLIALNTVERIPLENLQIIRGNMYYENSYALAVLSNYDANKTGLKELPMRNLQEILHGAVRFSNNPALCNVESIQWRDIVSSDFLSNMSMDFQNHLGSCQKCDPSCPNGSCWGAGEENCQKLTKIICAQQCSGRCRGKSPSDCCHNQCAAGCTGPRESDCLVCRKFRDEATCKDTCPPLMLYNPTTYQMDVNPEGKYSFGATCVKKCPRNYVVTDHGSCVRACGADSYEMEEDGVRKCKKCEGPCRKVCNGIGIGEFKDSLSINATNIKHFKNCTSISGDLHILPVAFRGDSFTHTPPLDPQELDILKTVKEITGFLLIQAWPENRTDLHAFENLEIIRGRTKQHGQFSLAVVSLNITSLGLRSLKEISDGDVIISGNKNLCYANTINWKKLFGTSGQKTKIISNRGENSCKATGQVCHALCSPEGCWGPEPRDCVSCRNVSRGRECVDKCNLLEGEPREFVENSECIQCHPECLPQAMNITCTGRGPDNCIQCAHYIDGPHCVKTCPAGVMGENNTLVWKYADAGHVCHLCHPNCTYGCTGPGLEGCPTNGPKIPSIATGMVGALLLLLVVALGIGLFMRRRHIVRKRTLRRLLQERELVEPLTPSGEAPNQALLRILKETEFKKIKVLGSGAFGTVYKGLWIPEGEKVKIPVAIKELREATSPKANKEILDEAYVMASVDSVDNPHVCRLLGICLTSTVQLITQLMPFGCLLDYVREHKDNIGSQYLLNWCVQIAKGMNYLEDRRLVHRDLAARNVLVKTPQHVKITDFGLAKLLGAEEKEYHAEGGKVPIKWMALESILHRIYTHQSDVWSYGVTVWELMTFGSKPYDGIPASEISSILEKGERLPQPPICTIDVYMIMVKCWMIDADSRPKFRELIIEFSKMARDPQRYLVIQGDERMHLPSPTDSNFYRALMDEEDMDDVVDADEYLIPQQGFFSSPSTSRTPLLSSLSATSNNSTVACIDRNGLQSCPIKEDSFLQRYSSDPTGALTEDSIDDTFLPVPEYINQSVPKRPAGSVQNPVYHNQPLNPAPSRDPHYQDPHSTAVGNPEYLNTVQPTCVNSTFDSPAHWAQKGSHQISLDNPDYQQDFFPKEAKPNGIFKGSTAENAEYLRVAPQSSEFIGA

Chain of HER2 (A775_G776insYVMA) expressing Ba/F3 stable cell line (P04626 with tags, fused parts or gaps DUP772-775): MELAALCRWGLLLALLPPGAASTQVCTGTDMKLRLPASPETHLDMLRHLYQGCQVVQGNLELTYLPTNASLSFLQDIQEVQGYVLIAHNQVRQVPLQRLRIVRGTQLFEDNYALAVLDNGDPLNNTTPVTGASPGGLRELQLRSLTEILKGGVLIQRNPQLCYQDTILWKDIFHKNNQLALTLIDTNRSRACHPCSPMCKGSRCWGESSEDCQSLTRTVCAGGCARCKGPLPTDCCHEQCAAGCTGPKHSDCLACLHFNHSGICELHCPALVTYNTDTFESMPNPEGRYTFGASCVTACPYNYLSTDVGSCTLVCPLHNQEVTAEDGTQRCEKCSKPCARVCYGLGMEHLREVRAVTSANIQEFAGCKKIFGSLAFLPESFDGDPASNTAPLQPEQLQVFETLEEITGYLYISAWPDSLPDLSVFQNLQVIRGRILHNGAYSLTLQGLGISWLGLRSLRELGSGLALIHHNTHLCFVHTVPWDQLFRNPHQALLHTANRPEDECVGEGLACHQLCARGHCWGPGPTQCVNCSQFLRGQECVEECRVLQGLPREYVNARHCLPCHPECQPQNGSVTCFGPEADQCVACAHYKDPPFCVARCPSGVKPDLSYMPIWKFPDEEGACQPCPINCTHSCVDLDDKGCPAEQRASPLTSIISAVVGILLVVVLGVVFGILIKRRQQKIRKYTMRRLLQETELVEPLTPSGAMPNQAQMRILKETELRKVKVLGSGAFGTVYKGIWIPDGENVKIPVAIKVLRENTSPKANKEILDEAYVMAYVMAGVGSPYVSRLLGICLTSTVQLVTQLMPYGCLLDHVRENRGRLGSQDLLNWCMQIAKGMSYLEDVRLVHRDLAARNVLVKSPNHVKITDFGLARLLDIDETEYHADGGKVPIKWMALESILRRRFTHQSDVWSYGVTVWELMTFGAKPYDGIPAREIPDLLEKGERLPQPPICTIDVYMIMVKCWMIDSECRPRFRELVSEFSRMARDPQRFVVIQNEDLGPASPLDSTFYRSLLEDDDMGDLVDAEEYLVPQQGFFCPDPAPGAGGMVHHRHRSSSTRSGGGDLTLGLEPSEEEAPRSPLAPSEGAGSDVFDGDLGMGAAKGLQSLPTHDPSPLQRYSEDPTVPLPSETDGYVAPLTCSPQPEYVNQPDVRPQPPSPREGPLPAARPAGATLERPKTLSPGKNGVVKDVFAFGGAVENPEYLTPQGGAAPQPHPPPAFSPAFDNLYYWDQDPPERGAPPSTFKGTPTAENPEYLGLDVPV
Chain of EGFR (A767_dupASV) expressing Ba/F3 stable cell line (P00533 with tags, fused parts or gaps DUP767-769): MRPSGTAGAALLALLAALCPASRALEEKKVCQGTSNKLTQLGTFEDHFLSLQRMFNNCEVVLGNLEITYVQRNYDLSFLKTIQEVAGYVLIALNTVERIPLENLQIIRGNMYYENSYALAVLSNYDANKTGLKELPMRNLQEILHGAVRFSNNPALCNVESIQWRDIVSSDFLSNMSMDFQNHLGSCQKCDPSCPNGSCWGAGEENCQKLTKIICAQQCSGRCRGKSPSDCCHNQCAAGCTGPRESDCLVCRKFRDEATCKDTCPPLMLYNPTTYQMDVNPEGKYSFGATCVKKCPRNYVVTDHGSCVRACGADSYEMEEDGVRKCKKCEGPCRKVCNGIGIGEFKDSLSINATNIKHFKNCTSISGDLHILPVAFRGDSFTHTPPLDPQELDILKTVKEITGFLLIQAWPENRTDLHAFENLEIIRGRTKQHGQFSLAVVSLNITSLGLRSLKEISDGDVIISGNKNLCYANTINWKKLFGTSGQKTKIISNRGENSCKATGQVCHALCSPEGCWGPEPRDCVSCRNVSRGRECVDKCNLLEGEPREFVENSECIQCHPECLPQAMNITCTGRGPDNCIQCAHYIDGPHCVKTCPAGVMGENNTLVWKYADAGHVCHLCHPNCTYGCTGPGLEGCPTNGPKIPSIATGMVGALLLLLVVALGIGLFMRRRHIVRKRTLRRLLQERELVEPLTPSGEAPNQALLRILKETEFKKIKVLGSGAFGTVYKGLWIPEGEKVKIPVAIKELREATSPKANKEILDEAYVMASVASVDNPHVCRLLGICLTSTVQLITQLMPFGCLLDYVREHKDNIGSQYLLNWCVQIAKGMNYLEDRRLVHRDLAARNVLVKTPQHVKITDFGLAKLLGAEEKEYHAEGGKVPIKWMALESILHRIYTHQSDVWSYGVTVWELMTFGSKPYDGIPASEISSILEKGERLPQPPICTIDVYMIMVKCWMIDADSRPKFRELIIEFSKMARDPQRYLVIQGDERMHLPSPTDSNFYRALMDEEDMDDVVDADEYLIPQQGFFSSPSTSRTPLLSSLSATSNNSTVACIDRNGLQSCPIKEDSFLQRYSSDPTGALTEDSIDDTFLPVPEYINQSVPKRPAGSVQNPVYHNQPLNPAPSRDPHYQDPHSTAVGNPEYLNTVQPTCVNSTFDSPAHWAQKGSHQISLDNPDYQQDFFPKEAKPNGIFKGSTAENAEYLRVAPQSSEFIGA

Regarding `C=CC(=O)Nc1ccc(F)c(Nc2nc(Nc3cnn(CCN(C)C)c3)ncc2-c2ccc(N3CCCCC3)c(F)c2)c1` [Compound 82, N-(3-((2-((1-(2-(dimethylamino)ethyl)-1H-pyrazol-4-yl)amino)-5-(3-fluoro-4-(piperidin-1-yl)phenyl)pyrimidin-4-yl)amino)-4-fluorophenyl)acrylamide], the half-inhibitory concentration (IC50) (in general, the midpoint of a concentration-inhibition curve) in assay [1] amounted to 397 nM. For the same molecule, the GI50 in assay [2] worked out at 239 nM; in assay [3], 149 nM; in assay [4], 313 nM.
For `C=CC(=O)Nc1ccc(F)c(Nc2nc(Nc3cnn(C)c3)ncc2-c2ccc(N3CCCCCC3)c(F)c2)c1` [Compound 85, N-(3-((5-(4-(azepan-1-yl)-3-fluorophenyl)-2-((1-methyl-1H-pyrazol-4-yl)amino)pyrimidin-4-yl)amino)-4-fluorophenyl)acrylamide] the same measures were 2820 nM, 268 nM, 884 nM and 314 nM.
For `C=CC(=O)Nc1ccc(F)c(Nc2nc(Nc3cnn(C)c3)ncc2-c2cc(F)c(Br)c(F)c2)c1` [Compound 91, N-(3-((5-(4-bromo-3,5-difluorophenyl)-2-((1-methyl-1H-pyrazol-4-yl)amino)pyrimidin-4-yl)amino)-4-fluorophenyl)acrylamide] the same measures were 11 nM, 31 nM, 59 nM and 15 nM.
As to `C=CC(=O)Nc1ccc(F)c(Nc2nc(Nc3cnn(C4CCOC4)c3)ncc2-c2ccc(Br)c(F)c2)c1` (centres unmarked) [Compound 93, N-(3-((5-(4-bromo-3-fluorophenyl)-2-((1-(tetrahydrofuran-3-yl)-1H-pyrazol-4-yl)amino)pyrimidin-4-yl)amino)-4-fluorophenyl)acrylamide], the IC50 in assay [1] came to 33 nM. Also, the GI50 in assay [2] is 46 nM; in assay [3], 173 nM; in assay [4] it was 35 nM.
Regarding `C=CC(=O)Nc1ccc(F)c(Nc2nc(Nc3cnn(CCOC)c3)ncc2-c2ccc(Br)c(F)c2)c1` [Compound 95, N-(3-((5-(4-bromo-3-fluorophenyl)-2-((1-(2-methoxyethyl)-1H-pyrazol-4-yl)amino)pyrimidin-4-yl)amino)-4-fluorophenyl)acrylamide], in assay [1], the 50% inhibitory concentration (IC50) turned out to be 4770 nM. Besides, the GI50 in assay [2] was determined as 43 nM; in assay [3], 197 nM; in assay [4] it was 29 nM.
For `C=CC(=O)Nc1cc(F)cc(Nc2nc(Nc3cnn(C)c3)ncc2-c2ccc(Br)c(F)c2)c1` [Compound 97, N-(3-((5-(4-bromo-3-fluorophenyl)-2-((1-methyl-1H-pyrazol-4-yl)amino)pyrimidin-4-yl)amino)-5-fluorophenyl)acrylamide] the same measures were 12 nM, 24 nM, 62 nM and 13 nM.
`C=CC(=O)Nc1ccc(F)c(Nc2nc(Nc3cnn(CCOC)c3)ncc2-c2ccc(F)c(Cl)c2)c1` [Compound 100, N-(3-((5-(3-chloro-4-fluorophenyl)-2-((1-(2-methoxyethyl)-1H-pyrazol-4-yl)amino)pyrimidin-4-yl)amino)-4-fluorophenyl)acrylamide]: the IC50 in assay [1] is 1200 nM. For the same molecule, the GI50 in assay [2] was determined as 301 nM; in assay [3], 860 nM; in assay [4], 274 nM.
Take `[2H]C([2H])=CC(=O)Nc1ccc(F)c(Nc2nc(Nc3cnn(C)c3)ncc2-c2ccc(Br)c(F)c2)c1` [Compound 102, N-(3-((5-(4-bromo-3-fluorophenyl)-2-((1-methyl-1H-pyrazol-4-yl)amino)pyrimidin-4-yl)amino)-4-fluorophenyl)acrylamide-3,3-d2]: the IC50 in assay [1] came out at 69 nM. The GI50 in assay [2] worked out at 30 nM; in assay [3], 117 nM; in assay [4], 35 nM.
Take `C=CC(=O)Nc1ccc(F)c(Nc2nc(Nc3cn(C)nc3Cl)ncc2-c2cc(F)cc(F)c2)c1` [Compound 104, N-(3-((2-((3-chloro-1-methyl-1H-pyrazol-4-yl)amino)-5-(3,5-difluorophenyl)pyrimidin-4-yl)amino)-4-fluorophenyl)acrylamide]: the IC50 in assay [1] stood at 17 nM. Further, the results for the GI50 in assay [2], in assay [3] and in assay [4] were 44 nM, 64 nM and 34 nM, respectively.
With `CN(C)C/C=C/C(=O)Nc1ccc(F)c(Nc2nc(Nc3cnn(C)c3)ncc2-c2ccc(Br)c(F)c2)c1` [Compound 105, (E)-N-(3-((5-(4-bromo-3-fluorophenyl)-2-((1-methyl-1H-pyrazol-4-yl)amino)pyrimidin-4-yl)amino)-4-fluorophenyl)-4-(dimethylamino)but-2-enamide], in assay [1], the IC50 worked out at 85 nM. In addition, the GI50 is 663 nM in assay [2], 125 nM in assay [3] and 129 nM in assay [4].
For `C=CC(=O)Nc1ccc(F)c(Nc2nc(Nc3cn(C)nc3Cl)ncc2-c2cc(F)cc(OC)c2)c1` [Compound 106, N-(3-((2-((3-chloro-1-methyl-1H-pyrazol-4-yl)amino)-5-(3-fluoro-5-methoxyphenyl)pyrimidin-4-yl)amino)-4-fluorophenyl)acrylamide] the same measures were 125 nM, 35 nM, 568 nM and 285 nM.
For `C=CC(=O)Nc1ccc(F)c(Nc2nc(Nc3cn(C)nc3Cl)ncc2-c2cc(F)cc(C(F)F)c2)c1` [Compound 108, N-(3-((2-((3-chloro-1-methyl-1H-pyrazol-4-yl)amino)-5-(3-(difluoromethyl)-5-fluorophenyl)pyrimidin-4-yl)amino)-4-fluorophenyl)acrylamide] the same measures were 23 nM, 96 nM, 243 nM and 39 nM.
With `C=CC(=O)Nc1ccc(F)c(Nc2nc(Nc3cnn(C)c3)ncc2-c2cc(F)cc(Br)c2)c1` [Compound 109, N-(3-((5-(3-bromo-5-fluorophenyl)-2-((1-methyl-1H-pyrazol-4-yl)amino)pyrimidin-4-yl)amino)-4-fluorophenyl)acrylamide], the 50% inhibitory concentration (IC50) in assay [1] stood at 534 nM. For the same molecule, the GI50 worked out at 97 nM in assay [2], 192 nM in assay [3] and 53 nM in assay [4].
For `C=CC(=O)Nc1ccc(F)c(Nc2nc(Nc3cnn(C)c3)ncc2-c2cccc(Br)c2F)c1` [Compound 113, N-(3-((5-(3-bromo-2-fluorophenyl)-2-((1-methyl-1H-pyrazol-4-yl)amino)pyrimidin-4-yl)amino)-4-fluorophenyl)acrylamide], in assay [1], the half-maximal inhibitory concentration (IC50) came out at 73 nM. For the same molecule, the GI50 in assay [2] is 92 nM; in assay [3] it was 463 nM; in assay [4], 70 nM.
For `C=CC(=O)Nc1cccc(Nc2nc(Nc3cnn(C)c3)ncc2-c2ccc(Br)c(F)c2)c1` [Compound 115, N-(3-((5-(4-bromo-3-fluorophenyl)-2-((1-methyl-1H-pyrazol-4-yl)amino)pyrimidin-4-yl)amino)phenyl)acrylamide] the same measures were 11 nM, 36 nM, 86 nM and 32 nM.
With `CN(C)C/C=C/C(=O)Nc1ccc(F)c(Nc2nc(Nc3cnn(C)c3)ncc2-c2cc(F)cc(F)c2)c1` [Compound 117, (E)-N-(3-((5-(3,5-difluorophenyl)-2-((1-methyl-1H-pyrazol-4-yl)amino)pyrimidin-4-yl)amino)-4-fluorophenyl)-4-(dimethylamino)but-2-enamide], the half-inhibitory concentration (IC50) in assay [1] amounted to 668 nM. Further, the GI50 was 328 nM in assay [2], 141 nM in assay [3] and 135 nM in assay [4].
For `C=CC(=O)Nc1ccc(F)c(Nc2nc(Nc3cnn(C)c3)ncc2-c2cc(F)c(Br)c(Cl)c2)c1` [Compound 123, N-(3-((5-(4-bromo-3-chloro-5-fluorophenyl)-2-((1-methyl-1H-pyrazol-4-yl)amino)pyrimidin-4-yl)amino)-4-fluorophenyl)acrylamide] the same measures were 71 nM, 50 nM, 66 nM and 40 nM.
`C=CC(=O)Nc1cccc(Nc2nc(Nc3cnn(C)c3)ncc2-c2ccc(OC(F)F)c(F)c2)c1` [Compound 124, N-(3-((5-(4-(difluoromethoxy)-3-fluorophenyl)-2-((1-methyl-1H-pyrazol-4-yl)amino)pyrimidin-4-yl)amino)phenyl)acrylamide]: the IC50 in assay [1] stood at 6 nM. In addition, the GI50 in assay [2] came to 21 nM; in assay [3], 49 nM; in assay [4] it was 11 nM.
With `C=CC(=O)Nc1ccc(F)c(Nc2nc(Nc3cnn(C)c3)ncc2-c2cc(F)c(F)c(OC)c2)c1` [Compound 126, N-(3-((5-(3,4-difluoro-5-methoxyphenyl)-2-((1-methyl-1H-pyrazol-4-yl)amino)pyrimidin-4-yl)amino)-4-fluorophenyl)acrylamide], in assay [1], the half-inhibitory concentration (IC50) came out at 43 nM. Moreover, the values for the GI50 in assay [2], in assay [3] and in assay [4] were 100 nM, 153 nM and 40 nM, respectively.
For `C=CC(=O)Nc1cccc(Nc2nc(Nc3cnn(C)c3)ncc2-c2cc(F)cc(OC)c2)c1` [Compound 127, N-(3-((5-(3-fluoro-5-methoxyphenyl)-2-((1-methyl-1H-pyrazol-4-yl)amino)pyrimidin-4-yl)amino)phenyl)acrylamide] the same measures were 123 nM, 312 nM, 167 nM and 89 nM.

The record behind these values is patent US20230416232A1, “PYRIMIDINE COMPOUNDS, COMPOSITIONS, AND MEDICINAL APPLICATIONS THEREOF” (Blueprint Medicines Corporation, priority 2020, published 2023).
